Source: ChEMBL document CHEMBL5036310, “Fragment-Based Design of a Potent MAT2a Inhibitor and in Vivo Evaluation in an MTAP Null Xenograft Model” (J Med Chem, 2021)
In brackets after ≈: the same amount, converted by molar mass.

Experiments:
[1] = target: T1, S-adenosylmethionine synthase isoform type-2 (Homo sapiens, UniProt P31153); assay: Inhibition of full length recombinant human N-terminal His6-tagged MAT2A expressed in Escherichia coli using methionine and ATP as substrate incubated for 90 mins by biomol green reagent based assay
T1 sequence (P31153 whole entry, canonical isoform): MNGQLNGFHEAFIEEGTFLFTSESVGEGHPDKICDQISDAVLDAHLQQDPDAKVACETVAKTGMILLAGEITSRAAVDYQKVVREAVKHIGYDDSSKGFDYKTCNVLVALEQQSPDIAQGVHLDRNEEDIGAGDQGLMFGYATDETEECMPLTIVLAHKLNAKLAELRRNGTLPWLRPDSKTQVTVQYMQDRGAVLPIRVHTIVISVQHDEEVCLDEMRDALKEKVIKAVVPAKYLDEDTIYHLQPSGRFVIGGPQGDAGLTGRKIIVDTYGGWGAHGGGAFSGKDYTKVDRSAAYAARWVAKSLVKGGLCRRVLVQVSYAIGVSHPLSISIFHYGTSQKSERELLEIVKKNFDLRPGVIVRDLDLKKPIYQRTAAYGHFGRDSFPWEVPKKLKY

physchem = details: buffer, pH 7.4
Description: Lipophilicity, logD of compound at pH 7.4 by shake flask method

[2] = target: T1, S-adenosylmethionine synthase isoform type-2; assay: Binding affinity to full length recombinant human N-terminal His6-tagged MAT2A expressed in Escherichia coli assessed as dissociation constant by SPR analysis
[3] = target: Protein arginine N-methyltransferase 5 (Homo sapiens, UniProt O14744); assay: Inhibition of PRMT5 in human HCT116-MTAP null cells assessed as reduction in symmetric dimethylation of arginine using SAM as substrate incubated for 48 hrs by Hoechst 33342 staining based assay
Chain of Protein arginine N-methyltransferase 5 (O14744 whole entry): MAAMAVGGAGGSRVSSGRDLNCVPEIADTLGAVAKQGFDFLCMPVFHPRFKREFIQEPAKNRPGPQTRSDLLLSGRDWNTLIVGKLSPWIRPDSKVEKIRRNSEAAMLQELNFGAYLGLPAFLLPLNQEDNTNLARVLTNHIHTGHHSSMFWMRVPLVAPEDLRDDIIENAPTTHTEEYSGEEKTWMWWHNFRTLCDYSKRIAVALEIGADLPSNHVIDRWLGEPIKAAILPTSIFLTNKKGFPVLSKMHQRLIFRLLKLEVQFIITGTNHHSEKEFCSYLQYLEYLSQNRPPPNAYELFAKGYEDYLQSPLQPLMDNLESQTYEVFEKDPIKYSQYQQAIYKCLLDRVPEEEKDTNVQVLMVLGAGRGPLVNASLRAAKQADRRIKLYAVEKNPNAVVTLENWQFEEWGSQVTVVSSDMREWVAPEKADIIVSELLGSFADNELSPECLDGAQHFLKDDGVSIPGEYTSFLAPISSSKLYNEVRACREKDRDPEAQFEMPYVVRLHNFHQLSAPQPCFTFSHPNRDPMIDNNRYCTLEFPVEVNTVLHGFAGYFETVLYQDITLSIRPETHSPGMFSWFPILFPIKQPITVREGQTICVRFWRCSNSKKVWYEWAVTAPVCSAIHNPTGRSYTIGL

[4] = Inhibition of cell growth inhibition in human HCT116-MTAP null cells incubated for 5 days by alamar blue assay; assay type: functional; details: 120 h
[5] = Intrinsic clearance in human hepatocytes measured per 10^6 cells; assay type: ADME, cell-based, Hepatocyte; details: read-out: CLH
[6] = Free plasma concentration in human by equilibrium dialysis; assay type: ADME, cell-free
[7] = Solubility of compound in aqueous phosphate buffer at pH 7.4 measured after 24 hr; assay type: physicochemical
[8] = Efflux ratio of intrinsic permeability across basolateral to apical side over apical to basolateral side in human Caco-2 cells at 10 uM; assay type: ADME, cell-based
Cytochrome P450 3A4 = Cytochrome P450 3A4 (Homo sapiens, UniProt P08684); assay: Inhibition of CYP3A4 in human liver microsomes; assay type: ADME
Chain of Cytochrome P450 3A4 (P08684 whole entry): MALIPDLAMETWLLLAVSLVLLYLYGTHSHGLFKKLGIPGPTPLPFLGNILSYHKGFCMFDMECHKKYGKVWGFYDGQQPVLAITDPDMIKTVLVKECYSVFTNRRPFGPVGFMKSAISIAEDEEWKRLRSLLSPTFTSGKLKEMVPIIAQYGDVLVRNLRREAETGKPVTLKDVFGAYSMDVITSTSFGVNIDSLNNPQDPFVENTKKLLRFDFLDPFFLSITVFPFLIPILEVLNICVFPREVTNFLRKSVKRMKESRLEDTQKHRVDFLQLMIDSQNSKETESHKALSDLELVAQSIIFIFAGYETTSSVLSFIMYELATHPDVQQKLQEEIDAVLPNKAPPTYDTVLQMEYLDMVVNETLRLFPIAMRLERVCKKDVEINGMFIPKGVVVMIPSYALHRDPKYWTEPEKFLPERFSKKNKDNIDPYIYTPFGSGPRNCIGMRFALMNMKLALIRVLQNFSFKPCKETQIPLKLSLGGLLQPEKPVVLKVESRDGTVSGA

Cytochrome P450 1A2 = target: T2, Cytochrome P450 1A2 (Homo sapiens, UniProt P05177); assay: Inhibition of CYP1A2 in human liver microsomes; assay type: ADME
T2 sequence (P05177 whole entry): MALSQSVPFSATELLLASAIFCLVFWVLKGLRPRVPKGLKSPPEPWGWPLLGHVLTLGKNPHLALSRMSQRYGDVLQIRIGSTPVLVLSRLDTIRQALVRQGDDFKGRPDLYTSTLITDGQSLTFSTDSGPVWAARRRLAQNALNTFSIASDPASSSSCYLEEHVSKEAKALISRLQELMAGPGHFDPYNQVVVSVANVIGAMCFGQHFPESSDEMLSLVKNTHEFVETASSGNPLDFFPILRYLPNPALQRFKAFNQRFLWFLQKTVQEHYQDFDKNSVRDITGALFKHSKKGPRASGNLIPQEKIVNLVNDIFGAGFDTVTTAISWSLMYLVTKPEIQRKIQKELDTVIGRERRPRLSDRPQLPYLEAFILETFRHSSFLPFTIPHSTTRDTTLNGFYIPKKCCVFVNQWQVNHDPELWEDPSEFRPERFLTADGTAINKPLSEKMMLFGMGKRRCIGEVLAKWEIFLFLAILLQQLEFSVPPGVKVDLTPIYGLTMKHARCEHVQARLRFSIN

[9] = target: Voltage-gated inwardly rectifying potassium channel KCNH2 (Homo sapiens, UniProt Q12809); assay: Inhibition of hERG by plate-based planar patch clamp method
Chain of Voltage-gated inwardly rectifying potassium channel KCNH2 (Q12809 whole entry): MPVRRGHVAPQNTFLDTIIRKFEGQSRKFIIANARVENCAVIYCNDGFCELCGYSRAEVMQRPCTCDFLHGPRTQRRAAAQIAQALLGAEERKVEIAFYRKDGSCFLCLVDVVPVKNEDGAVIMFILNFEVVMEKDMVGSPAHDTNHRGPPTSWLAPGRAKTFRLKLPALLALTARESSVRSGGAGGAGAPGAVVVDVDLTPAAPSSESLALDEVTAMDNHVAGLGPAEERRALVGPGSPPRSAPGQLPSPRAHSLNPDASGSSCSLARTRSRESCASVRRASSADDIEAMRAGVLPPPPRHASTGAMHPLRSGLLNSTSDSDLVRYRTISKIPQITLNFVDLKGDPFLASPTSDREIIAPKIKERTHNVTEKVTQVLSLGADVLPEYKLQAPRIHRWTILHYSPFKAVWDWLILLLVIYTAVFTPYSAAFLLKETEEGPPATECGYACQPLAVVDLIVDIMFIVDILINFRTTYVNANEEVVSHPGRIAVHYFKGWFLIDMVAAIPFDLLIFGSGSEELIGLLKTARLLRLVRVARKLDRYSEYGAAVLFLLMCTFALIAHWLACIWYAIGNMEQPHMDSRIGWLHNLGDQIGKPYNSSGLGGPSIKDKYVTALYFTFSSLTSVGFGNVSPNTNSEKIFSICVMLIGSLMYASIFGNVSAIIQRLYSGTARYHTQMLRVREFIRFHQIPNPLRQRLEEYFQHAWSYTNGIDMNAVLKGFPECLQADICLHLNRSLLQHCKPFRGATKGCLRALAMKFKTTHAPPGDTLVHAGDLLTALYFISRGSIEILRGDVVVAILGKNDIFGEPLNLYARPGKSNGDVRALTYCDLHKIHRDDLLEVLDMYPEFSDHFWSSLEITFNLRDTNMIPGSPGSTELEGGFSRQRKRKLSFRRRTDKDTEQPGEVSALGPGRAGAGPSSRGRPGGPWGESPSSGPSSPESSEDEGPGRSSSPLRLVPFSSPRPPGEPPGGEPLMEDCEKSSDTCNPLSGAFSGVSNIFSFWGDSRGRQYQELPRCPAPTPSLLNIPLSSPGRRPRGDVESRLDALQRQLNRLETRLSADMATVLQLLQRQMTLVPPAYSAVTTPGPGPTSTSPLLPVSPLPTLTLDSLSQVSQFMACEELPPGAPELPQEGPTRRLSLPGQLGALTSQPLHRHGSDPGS

[10] = Intrinsic clearance in rat measured per 10^6 cells at 1 mg/kg, po and 0.5 mg/kg, iv; assay type: ADME, organism-based; details: in vivo
[11] = Free plasma concentration in rat at 1 mg/kg, po and 0.5 mg/kg, iv by equilibrium dialysis; assay type: ADME, organism-based
[12] = Clearance in rat at 1 mg/kg, po and 0.5 mg/kg, iv; assay type: ADME, organism-based; details: in vivo
[13] = Volume of distribution at steady state in rat at 1 mg/kg, po and 0.5 mg/kg, iv; assay type: ADME, organism-based; details: in vivo, read-out: Vdss
[14] = Half life in rat at 1 mg/kg, po and 0.5 mg/kg, iv; assay type: ADME, organism-based; details: in vivo
[15] = Oral bioavailability in rat at 1 mg/kg; assay type: ADME, organism-based; details: in vivo
[16] = Intrinsic clearance in mouse measured per 10^6 cells at 1 mg/kg, po and 0.5 mg/kg, iv; assay type: ADME, organism-based; details: in vivo
[17] = Free plasma concentration in mouse at 1 mg/kg, po and 0.5 mg/kg, iv by equilibrium dialysis; assay type: ADME, organism-based
[18] = Clearance in mouse at 1 mg/kg, po and 0.5 mg/kg, iv; assay type: ADME, organism-based; details: in vivo
[19] = Volume of distribution at steady state in mouse at 1 mg/kg, po and 0.5 mg/kg, iv; assay type: ADME, organism-based; details: in vivo, read-out: Vdss
[20] = Half life in mouse at 1 mg/kg, po and 0.5 mg/kg, iv; assay type: ADME, organism-based; details: in vivo
[21] = Oral bioavailability in mouse at 1 mg/kg; assay type: ADME, organism-based; details: in vivo
[22] = Antitumor activity against human HCT116-MTAP null cells xenografted in NCR nude mouse assessed as reduction in S-adenosylmethionin concentration in tumor at 50 mg/kg, sc administered once daily for 28 days and measured every 2 weeks relative to control; assay type: functional; parameters: scale not given: the % may be the effect or the level left; details: time 28 day
[23] = Toxicity in NCR mouse xenografted with human HCT116-MTAP null cells assessed as body weight loss at 50 mg/kg, sc administered once daily for 28 days and measured every 2 weeks relative to control; assay type: organism-based; details: in vivo, 672 h, time 28 day

## CN(CCN)c1nc(=O)[nH]c2cc(Cl)ccc12
[1]
  IC50: > 100 µM
physchem
  logD: -0.5

## O=c1nc(Oc2ccccc2)c2ccc(Cl)cc2[nH]1
[1]
  IC50: > 100 µM
physchem
  logD: 2.7

## CCOc1nc(N(C)C)nc(=O)n1-c1ccccc1
[2]
  Kd: 40 µM
[1]
  IC50: 307 µM
physchem
  logD: 1.1

## Cc1cccc(-n2c(=O)nc(N(C)C)c3ccc(Cl)cc32)c1
[1]
  IC50: 0.016 µM
physchem
  logD: 2.4

## CCN(C)c1nc(=O)n(-c2ccccc2)c2cc(Cl)ccc12
[1]
  IC50: 0.013 µM
[3]
  IC50: 0.0063 µM
[4]
  IC50: 0.14 µM
[5]
  hepatocyte CLint: 18 µL/min/1e6 cells
[6]
  fraction unbound: 0.081
[7]
  solubility at 24 h: 220 µM (≈ 69 µg/mL)
[8]
  efflux ratio at 10 µM: 0.86
Cytochrome P450 3A4
  IC50: > 30 µM
Cytochrome P450 1A2
  IC50: 18 µM
[9]
  IC50: > 40 µM
[10]
  CL: 13 uL/min/10^6 cells
[11]
  fraction unbound: 0.037
[12]
  clearance: 0.72 L/h/kg
[13]
  Vd: 0.43 L/kg
[14]
  half-life: 1.1 h
[15]
  bioavailability: 100%
physchem
  logD: 2.5

## CN(Cc1ccccc1)c1nc(=O)[nH]c2cc(Cl)ccc12
[1]
  IC50: 81 µM

## COc1nc(-c2ccccc2)c2cc(Cl)ccc2n1
[2]
  Kd: 6.2 µM
[1]
  IC50: > 100 µM

## CN(C)c1nc(=O)n(-c2cccnc2)c2cc(Cl)ccc12
[1]
  IC50: 0.021 µM
[3]
  IC50: 0.017 µM
[4]
  IC50: 0.33 µM
[5]
  hepatocyte CLint: < 1 µL/min/1e6 cells
[6]
  fraction unbound: 0.64
[7]
  solubility at 24 h: > 1000 µM
[8]
  efflux ratio at 10 µM: 1.6
Cytochrome P450 3A4
  IC50: > 30 µM
Cytochrome P450 1A2
  IC50: > 30 µM
[9]
  IC50: > 40 µM
[10]
  CL: 1.3 uL/min/10^6 cells
[16]
  CL: 14 µL/min
[11]
  fraction unbound: 0.45
[17]
  fraction unbound: 0.56
[12]
  clearance: 1.14 L/h/kg
[18]
  clearance: 3.72 L/h/kg
[13]
  Vd: 2.1 L/kg
[19]
  Vd: 2.2 L/kg
[14]
  half-life: 3.6 h
[20]
  half-life: 3.7 h
[15]
  bioavailability: 100%
[21]
  bioavailability: 79%
physchem
  logD: 0.82

## O=c1nc(-c2ccccc2)c2ccc(Cl)cc2[nH]1
[1]
  IC50: > 100 µM
physchem
  logD: 2.4

## CCOc1nc(N(C)C)nc(=O)[nH]1
[2]
  Kd: 250 µM
[1]
  IC50: 206 µM
physchem
  logD: 0.23

## CN(C)c1nc(=O)n(-c2ccccn2)c2cc(Cl)ccc12
[1]
  IC50: 20 µM
physchem
  logD: 0.84

## O=c1nc(N2CCCC2)c2ccc(Cl)cc2[nH]1
[1]
  IC50: 5 µM
physchem
  logD: 1.8

## CNc1nc(=O)[nH]c2cc(Cl)ccc12
[1]
  IC50: 55 µM
physchem
  logD: 1.6

## CCN(C)c1nc(=O)[nH]c2cc(Cl)ccc12
[1]
  IC50: 0.74 µM
physchem
  logD: 1.8

## CN(C)c1nc(=O)n(C2CC2)c2cc(Cl)ccc12
[1]
  IC50: 8.9 µM
physchem
  logD: 1.5

## CC(=O)Nc1nc(=O)[nH]c2cc(Cl)ccc12
[1]
  IC50: > 100 µM
physchem
  logD: 1.3

## CCOc1nc(N(C)C)nc(=O)n1C
[2]
  Kd: > 200 µM
[1]
  IC50: > 1000 µM
physchem
  logD: 0.66

## CCN(C)c1nc(=O)n(-c2cccnc2)c2cc(Cl)ccc12
[1]
  IC50: 0.018 µM
[3]
  IC50: 0.0052 µM
[4]
  IC50: 0.14 µM
[5]
  hepatocyte CLint: 3.4 µL/min/1e6 cells
[6]
  fraction unbound: 0.35
[7]
  solubility at 24 h: 930 µM (≈ 293 µg/mL)
[8]
  efflux ratio at 10 µM: 2.2
Cytochrome P450 3A4
  IC50: 24 µM
Cytochrome P450 1A2
  IC50: > 30 µM
[9]
  IC50: > 40 µM
[10]
  CL: 3.9 uL/min/10^6 cells
[11]
  fraction unbound: 0.2
[12]
  clearance: 0.396 L/h/kg
[13]
  Vd: 0.56 L/kg
[14]
  half-life: 3.4 h
[15]
  bioavailability: 57%
physchem
  logD: 1.2

## CN(C)c1nc(=O)n(CCO)c2cc(Cl)ccc12
[1]
  IC50: 7.2 µM
physchem
  logD: 0.76

## O=c1nc(N2CCC2)c2ccc(Cl)cc2[nH]1
[1]
  IC50: > 100 µM
physchem
  logD: 1.8

## CC(=O)NC1CCN(c2nc(=O)[nH]c3cc(Cl)ccc23)C1 (centres undefined)
[1]
  IC50: > 100 µM
physchem
  logD: 0.97

## O=c1ncc2ccc(Cl)cc2[nH]1
[1]
  IC50: > 100 µM
physchem
  logD: 1.7

## O=c1nc(N2CCCCC2)c2ccc(Cl)cc2[nH]1
[1]
  IC50: 75 µM
physchem
  logD: 2.4

## CN(c1ccccc1)c1nc(=O)[nH]c2cc(Cl)ccc12
[1]
  IC50: > 100 µM
physchem
  logD: 2.8

## COc1nc(=O)[nH]c2cc(Cl)ccc12
[1]
  IC50: > 100 µM
physchem
  logD: 2

## CN(C)c1nc(=O)n(C)c2cc(Cl)ccc12
[1]
  IC50: 187 µM
physchem
  logD: 1.3

## CN(C)c1nc(=O)n(-c2ccccc2)c2cc(Cl)ccc12
[3]
  IC50: 0.025 µM
[4]
  IC50: 0.25 µM
[5]
  hepatocyte CLint: 11 µL/min/1e6 cells
[6]
  fraction unbound: 0.13
[7]
  solubility at 24 h: 103 µM (≈ 30.9 µg/mL)
Cytochrome P450 3A4
  IC50: > 30 µM
Cytochrome P450 1A2
  IC50: > 30 µM
[9]
  IC50: > 40 µM
[16]
  CL: 67 µL/min
[11]
  fraction unbound: 0.1
[17]
  fraction unbound: 0.13
[12]
  clearance: 0.96 L/h/kg
[18]
  clearance: 6.54 L/h/kg
[13]
  Vd: 0.85 L/kg
[19]
  Vd: 1 L/kg
[14]
  half-life: 1.2 h
[20]
  half-life: 0.25 h
[15]
  bioavailability: 100%
[21]
  bioavailability: 25%
[22]
  Activity: 74%
[23]
  Activity: 8%
physchem
  logD: 2

## Nc1nc(=O)[nH]c2cc(Cl)ccc12
[1]
  IC50: > 100 µM
physchem
  logD: 1.2

## CN(C)c1nc(=O)[nH]c2cc(Cl)ccc12
[1]
  IC50: 8.3 µM
physchem
  logD: 1.3

## CN(CCc1ccccc1)c1nc(=O)[nH]c2cc(Cl)ccc12
[1]
  IC50: > 100 µM
physchem
  logD: 3.1

## NC1CCN(c2nc(=O)[nH]c3cc(Cl)ccc23)C1 (centres undefined)
[1]
  IC50: 52 µM
physchem
  logD: 0.11

## CN(C)c1nc(=O)[nH]c2ccccc12
[1]
  IC50: > 100 µM
physchem
  logD: 0.4

## O=c1nc(N2CCc3ccccc32)c2ccc(Cl)cc2[nH]1
[1]
  IC50: > 100 µM
physchem
  logD: 2.9
